Test results: PMC4770093, “The role of kinetic context in apparent biased agonism at GPCRs” (Nature Communications, 2016)
pEC50: −log10 of the molar value. Several values for one entry are separate records, joined by “and”; a condition that tells them apart may be missing. Equal values may be shown once. Read-outs that look alike come from different tables or passages of the source.

What was measured:
[1] = biological target: SNAP-tagged human dopamine D2L (Homo sapiens, UniProt P14416); test: Tag-lite PPHT-red competition kinetic binding (HTRF); settings: PPHT-red tracer, Tag-lite
D2LR [2] = biological target: T1, D2LR (Homo sapiens, UniProt P14416); test: Inhibition of forskolin-induced cAMP production (BRET CAMYEL biosensor); settings: for pEC50: pEC50 cAMP; for Emax: relative to the maximal response of ropinirole; for Inhibition of cAMP production measured using a CAMYEL BRET biosensor, Net BRET: single experiments n = 1, 2, 3
Description: Flp-In-CHO cells stably expressing the D2LR were seeded at a density of 2,000,000 cells per 10-cm dish and were transfected the following day using polyethylenimine as the transfection reagent. The cells were transfected with 3 μg CAMYEL, to allow the detection of cAMP levels within the cells. Twenty-four hours after transfection, the cells were plated into 96-well CulturPlates (PerkinElmer) and grown overnight. The cells were equilibrated in Hank's balanced salt solution at 37 °C (or 25 °C when indicated) before starting the experiment. The cells were co-stimulated with the agonists and 10 μM forskolin for the indicated timeframes when the BRET readings were captured. Coelenterazine (Promega) was added at a final concentration of 5 μM at least 3 min before measurement. […] Net BRET was determined by subtraction of the vehicle control co-added with 10 μM forskolin.

D2LR [3] = biological target: T1, D2LR; test: ERK1/2 phosphorylation assay (Alphascreen SureFire); type: cell-based; design: expressed in transfected cells; settings: for alpahscreen assay to detect pERK1/2, counts: agonist 10 μM (cariprazine 1 μM), single experiments n=1 to n=4
In short: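 Phosphorylated ERK1/2 was quantified with the Alphascreen SureFire ERK kit from PerkinElmer. Cells were plated at 50,000 per well in 96-well plates, washed with PBS after 5–7 h, and kept in serum-free DMEM overnight. Ligand dose–response curves were run at 37 °C with 0.1% ascorbic acid. Lysates were shaken 5 min at RT, 5 μl moved to 384-well Proxiplates, and read on a Fusion-TM reader.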

T1 sequence (P14416 whole entry): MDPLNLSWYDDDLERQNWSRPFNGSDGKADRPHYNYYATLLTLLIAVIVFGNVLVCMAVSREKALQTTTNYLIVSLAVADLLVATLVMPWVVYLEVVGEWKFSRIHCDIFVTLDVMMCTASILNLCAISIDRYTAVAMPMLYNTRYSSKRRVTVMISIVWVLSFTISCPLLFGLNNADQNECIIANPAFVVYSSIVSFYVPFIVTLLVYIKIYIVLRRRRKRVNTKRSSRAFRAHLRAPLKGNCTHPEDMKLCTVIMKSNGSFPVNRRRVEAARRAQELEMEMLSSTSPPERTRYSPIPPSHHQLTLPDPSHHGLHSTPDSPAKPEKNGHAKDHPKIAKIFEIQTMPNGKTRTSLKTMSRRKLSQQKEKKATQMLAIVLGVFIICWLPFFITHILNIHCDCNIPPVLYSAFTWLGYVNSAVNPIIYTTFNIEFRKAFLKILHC
Chain of SNAP-tagged human dopamine D2L (P14416 whole entry): as above

`CCCN(CCC)CCc1cccc2c1CC(=O)N2` [Ropinirole, ropinirole] was tested, and the koff ([1]; 100 μM GppNHp, 37 °C, read-out: koff (converted)) was 0.0433 s⁻¹, the Kd ([1]; read-out: pKd (affinity determined from kinetic parameters) (converted)) was 1.86 µM and the “Log(τ/KA) cAMP” value (D2LR [2]) was 7.67 ± 0.04. For the same compound, the “ΔLog(τ/KA) cAMP” value (D2LR [2]) was -0.39 ± 0.06, the pEC50 (D2LR [2]; 2 min) was 8.02 and the pEC50 (D2LR [2]; 5 min) was 7.65. For the same compound, the pEC50 (D2LR [2]; 10 min) was 7.38, the pEC50 (D2LR [2]; 15 min) was 7.37 and the pEC50 (D2LR [2]; 30 min) was 7.46. It also gave a pEC50 (D2LR [2]; 45 min) of 7.01, a pEC50 (D2LR [2]; 60 min) of 6.73 and a pEC50 (D2LR [2]; 75 min) of 6.97. For the same compound, the pEC50 (D2LR [2]; 90 min) was 6.76, the Emax (D2LR [2]; read-out: Emax cAMP, 2 min) was 100% and the Emax (D2LR [2]; read-out: Emax cAMP, 5 min) was 100%. For the same compound, the Emax (D2LR [2]; read-out: Emax cAMP, 10 min) was 100%, the Emax (D2LR [2]; read-out: Emax cAMP, 15 min) was 100% and the Emax (D2LR [2]; read-out: Emax cAMP, 30 min) was 100%. For the same compound, the Emax (D2LR [2]; read-out: Emax cAMP, 45 min) was 100%, the Emax (D2LR [2]; read-out: Emax cAMP, 60 min) was 100% and the Emax (D2LR [2]; read-out: Emax cAMP, 75 min) was 100%. The Emax (D2LR [2]; read-out: Emax cAMP, 90 min) was 100%, the “Inhibition of cAMP production measured using a CAMYEL BRET biosensor, Net BRET” value (“Inhibition of cAMP production measured” for short) (D2LR [2]; time 2.21667 mins) was 0.139 and 0.1472 and 0.1432 and the “Inhibition of cAMP production measured” value (D2LR [2]; time 2.58333 mins) was 0.1633 and 0.1578 and 0.1547. The “Inhibition of cAMP production measured” value (D2LR [2]; time 2.95 mins) was 0.1708 and 0.1681 and 0.157, the “Inhibition of cAMP production measured” value (D2LR [2]; time 3.31667 mins) was 0.1659 and 0.1812 and 0.1714 and the “Inhibition of cAMP production measured” value (D2LR [2]; time 3.68333 mins) was 0.1811 and 0.1789 and 0.1805. For the same compound, the “Inhibition of cAMP production measured” value (D2LR [2]; time 4.05 mins) was 0.191 and 0.1937 and 0.1853, the “Inhibition of cAMP production measured” value (D2LR [2]; time 4.41667 mins) was 0.1979 and 0.1996 and 0.185 and the “Inhibition of cAMP production measured” value (D2LR [2]; time 4.78333 mins) was 0.2031 and 0.2011 and 0.1899. For the same compound, the “Inhibition of cAMP production measured” value (D2LR [2]; time 5.15 mins) was 0.2133 and 0.1934 and 0.1923, the “Inhibition of cAMP production measured” value (D2LR [2]; time 5.51667 mins) was 0.202 and 0.1988 and 0.1873 and the “Inhibition of cAMP production measured” value (D2LR [2]; time 5.88333 mins) was 0.214 and 0.1997 and 0.2002. For the same compound, the “Inhibition of cAMP production measured” value (D2LR [2]; time 6.25 mins) was 0.2138 and 0.204 and 0.1926, the “Inhibition of cAMP production measured” value (D2LR [2]; time 6.61667 mins) was 0.2113 and 0.1972 and 0.1923 and the “Inhibition of cAMP production measured” value (D2LR [2]; time 6.98333 mins) was 0.2032 and 0.2012 and 0.1937. The “Inhibition of cAMP production measured” value (D2LR [2]; time 7.35 mins) was 0.2141 and 0.1963 and 0.1945, the “Inhibition of cAMP production measured” value (D2LR [2]; time 7.71667 mins) was 0.2104 and 0.2011 and 0.1956 and the “Inhibition of cAMP production measured” value (D2LR [2]; time 8.08333 mins) was 0.2099 and 0.2149 and 0.1931. For the same compound, the “Inhibition of cAMP production measured” value (D2LR [2]; time 8.45 mins) was 0.2126 and 0.2072 and 0.1885, the “Inhibition of cAMP production measured” value (D2LR [2]; time 8.81667 mins) was 0.2189 and 0.2083 and 0.199 and the “Inhibition of cAMP production measured” value (D2LR [2]; time 9.18333 mins) was 0.2207 and 0.2105 and 0.1943. The “Inhibition of cAMP production measured” value (D2LR [2]; time 9.55 mins) was 0.212 and 0.2054 and 0.2079, the “Inhibition of cAMP production measured” value (D2LR [2]; time 9.91667 mins) was 0.2149 and 0.2049 and 0.2075 and the “Inhibition of cAMP production measured” value (D2LR [2]; time 10.2833 mins) was 0.2152 and 0.2111 and 0.2029. The “Inhibition of cAMP production measured” value (D2LR [2]; time 10.65 mins) was 0.2279 and 0.2163 and 0.2038, the “Inhibition of cAMP production measured” value (D2LR [2]; time 11.0167 mins) was 0.2157 and 0.2032 and 0.2052 and the “Inhibition of cAMP production measured” value (D2LR [2]; time 11.3833 mins) was 0.2205 and 0.2041 and 0.2034. The “Inhibition of cAMP production measured” value (D2LR [2]; time 11.75 mins) was 0.2254 and 0.2085 and 0.1983, the “Inhibition of cAMP production measured” value (D2LR [2]; time 12.1167 mins) was 0.2217 and 0.2066 and 0.2006 and the “Inhibition of cAMP production measured” value (D2LR [2]; time 12.4833 mins) was 0.2324 and 0.2048 and 0.2074. The “Inhibition of cAMP production measured” value (D2LR [2]; time 12.85 mins) was 0.2281 and 0.2112 and 0.2008, the “Inhibition of cAMP production measured” value (D2LR [2]; time 13.2167 mins) was 0.2271 and 0.2125 and 0.2083 and the “Inhibition of cAMP production measured” value (D2LR [2]; time 13.5833 mins) was 0.2211 and 0.208 and 0.2059. For the same compound, the “Inhibition of cAMP production measured” value (D2LR [2]; time 13.95 mins) was 0.2209 and 0.2042 and 0.208, the “Inhibition of cAMP production measured” value (D2LR [2]; time 14.3167 mins) was 0.2319 and the “Log(τ/KA) pERK1/2” value (D2LR [3]; 5 minute timepoint, Flp-In-CHO-D2LR) was 8.44 ± 0.05. The “ΔLog(τ/KA) pERK1/2” value (D2LR [3]; 5 minute timepoint, dopamine as reference agonist) was -0.12 ± 0.07, the “alpahscreen assay to detect pERK1/2, counts” value (“alpahscreen assay” below) (D2LR [3]; time 5 mins) was 22.2889 counts and 25.6765 counts and 28.0112 counts and the “alpahscreen assay” value (D2LR [3]; time 7.5 mins) was 28.0112 counts and 22.6774 counts and 25.7734 counts. For the same compound, the “alpahscreen assay” value (D2LR [3]; time 10 mins) was 21.5421 counts and 16.2572 counts and 11.748 counts and 11.8417 counts, the “alpahscreen assay” value (D2LR [3]; time 20 mins) was 4.739 counts and 4.229 counts and 3.491 counts and 4.291 counts and the “alpahscreen assay” value (D2LR [3]; time 30 mins) was 2.723 counts and 2.242 counts and 2.289 counts and 2.713 counts.
